Laboratory results from publication PMC4607644 (Bioorganic & medicinal chemistry letters, 2015).
Where two headings read alike, the source gives them in different places.

What was measured:
[1] = Phase 1 and 2 metabolism; cited from earlier work
[2] = set-up: species or system mice; settings: mouse, in vivo
[3] = set-up: species or system baboon; settings: in vivo
[4] = in vivo, iv
[5] = test system: M. tuberculosis; settings: cited from earlier work
[6] = test system: InhA; settings: binds preferentially to InhA:NAD+ complex; cited from earlier work
[7] = PET brain uptake; settings: baboon, i.v.
[8] = test system: Staphylococcus aureus FabI (saFabI); settings: cited from earlier work
[9] = test system: MRSA; settings: cited from earlier work

## CCCCCCc1ccc(Oc2ccccc2)c(O)c1 [PT04]
[1]
  route of metabolism: O-glucuronidation was a primary route for metabolism

## CCCCCCc1ccc(Oc2ccccc2[11CH3])c(O)c1 [[^11C]PT70]
[2]
  concentration in the liver versus other peripheral organs: much higher in the liver
  time of highest concentration of drug after injection: 20 min
[3]; baboon
  elimination into the bladder: another large portion of the injected [11C]PT-70 was eliminated into the bladder
[3]; iv
  clearance from the heart, lung and blood: cleared rapidly

## CCCCCCc1ccc(Oc2ccccc2C)c(O)c1 [PT70]
[4]
  ability to penetrate the blood brain barrier (BBB): able to penetrate the brain
[5]
  antibacterial activity in a mouse model of tuberculosis infection: shows antibacterial activity
[5]; infected mice, lungs
  bacterial burden in the lungs: did not affect the bacterial burden
[5]; infected mice, spleens
  bacterial load in the spleens: reduced the bacterial load
[6]
  residence time on the target: 24 min

## CCCCCCc1ccc(Oc2ccccc2C#N)c(O)c1 [PT119]
[7]; images acquired for 90 min
  ability to penetrate the blood brain barrier (BBB): able to penetrate the brain
[7]; qualitative
  propensity to cross the BBB, qualitative comparison: higher propensity to cross the BBB than PT70
[8]
  residence time on saFabI: ~ 12.5 h
[9]
  efficacy in a mouse model of MRSA infection: demonstrates efficacy
